Source: article PMC9386018, “A lymphatic-absorbed multi-targeted kinase inhibitor for myelofibrosis therapy” (Nature Communications, 2022)
Several values for one entry are separate records, joined by “and”; a condition that tells them apart may be missing. Equal values may be shown once. Each block holds one compound with its values, some of them ahead of it.

Columns and labels:
[1] = Compound quantitation in blood and mesenteric lymph nodes; type: in vivo, mouse; conditions: mice
Experimental: Whole blood and mesenteric lymph nodes were collected either 30 min or 4 h following compound administration and stored at −20 °C until future processing and analysis by the University of Michigan Pharmacokinetics Core as above, or as outlined below, to determine compound concentrations in each tissue. […] Data was generated from n ≥ 4 individual animals per compound per study group or dose.
Briefly, acetonitrile was added to a final concentration of 60–80% to bone marrow, whole blood, plasma, lymphatic fluid, lymphatic proteo-lipid sub-fractions, or mesenteric lymph node samples for compound extraction. Extraction was performed by shaking and/or bead rupture using a Precellys Evolution tissue homogenizer (Bertin Technologies SAS). […] Optimization of MS and MS/MS parameters for MRM quantitation and maximum sensitivity of individual compounds was performed using SCIEX Analyst software (AB Sciex). […] All LC-MS/MS acquisitions were performed with an independent standard curve for each group of analytes and for each individual run. All solvents utilized were of Optima LC-MS Grade (Fisher Scientific). Data was generated from n ≥ 2 individual animals per compound per study condition or dose.

[2] = target: T1, Target kinase isoforms (PI3K, mTOR, RAF, MEK) (Homo sapiens, UniProt O00329); assay: Target kinase isoforms 10-point IC50 determination (Supplementary Fig. 7); type: biochemical; conditions: PI3K delta
T1 sequence (O00329 1-1044): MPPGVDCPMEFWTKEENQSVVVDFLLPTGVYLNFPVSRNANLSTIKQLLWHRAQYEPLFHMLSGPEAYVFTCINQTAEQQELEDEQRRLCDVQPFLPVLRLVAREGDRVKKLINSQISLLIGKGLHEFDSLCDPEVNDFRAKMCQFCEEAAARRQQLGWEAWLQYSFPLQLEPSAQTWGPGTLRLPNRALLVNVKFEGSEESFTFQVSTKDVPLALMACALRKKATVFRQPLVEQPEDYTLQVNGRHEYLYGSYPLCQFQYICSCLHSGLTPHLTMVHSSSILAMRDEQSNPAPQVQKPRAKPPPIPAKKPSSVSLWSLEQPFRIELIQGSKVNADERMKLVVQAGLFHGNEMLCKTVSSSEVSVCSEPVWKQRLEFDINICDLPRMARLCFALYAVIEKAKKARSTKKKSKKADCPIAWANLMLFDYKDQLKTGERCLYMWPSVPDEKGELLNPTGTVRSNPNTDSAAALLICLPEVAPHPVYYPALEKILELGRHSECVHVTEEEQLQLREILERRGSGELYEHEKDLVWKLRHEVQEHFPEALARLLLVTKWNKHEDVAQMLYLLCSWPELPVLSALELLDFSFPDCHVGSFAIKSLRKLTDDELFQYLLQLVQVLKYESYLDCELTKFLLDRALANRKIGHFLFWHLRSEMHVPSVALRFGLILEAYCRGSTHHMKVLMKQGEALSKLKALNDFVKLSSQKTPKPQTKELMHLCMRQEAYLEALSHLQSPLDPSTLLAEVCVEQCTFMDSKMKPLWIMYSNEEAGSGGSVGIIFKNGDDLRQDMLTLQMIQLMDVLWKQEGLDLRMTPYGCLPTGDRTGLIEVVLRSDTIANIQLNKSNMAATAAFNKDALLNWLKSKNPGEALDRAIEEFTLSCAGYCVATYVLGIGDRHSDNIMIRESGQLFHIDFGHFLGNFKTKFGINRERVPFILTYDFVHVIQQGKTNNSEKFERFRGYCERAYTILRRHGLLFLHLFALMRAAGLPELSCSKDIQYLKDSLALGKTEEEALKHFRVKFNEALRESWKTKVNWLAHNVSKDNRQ
Excerpt: (§1) The average percent kinase inhibition from replicate data was ranked low to high, converted to a compatible identifier format, then input into Coral Human Kinome Visualization software for presentation analysis. […] Scaling of evolutionary distance for PI kinases is only relative and is based on literature analysis[62],[63]. Average percent kinome inhibition values from replicate data are supplied in Source Data file. […] Corrected data was normalized to vehicle treated control values, and dose response percent kinase activity was analyzed by non-linear regression for determination of IC50 values.

[3] = target: Target kinase isoforms (PI3K, mTOR, RAF, MEK) (Homo sapiens, UniProt P42336); assay: as above; type: biochemical; conditions: PI3K alpha
Chain of Target kinase isoforms (PI3K, mTOR, RAF, MEK) (Homo sapiens, UniProt P42336) (P42336 whole entry, canonical isoform): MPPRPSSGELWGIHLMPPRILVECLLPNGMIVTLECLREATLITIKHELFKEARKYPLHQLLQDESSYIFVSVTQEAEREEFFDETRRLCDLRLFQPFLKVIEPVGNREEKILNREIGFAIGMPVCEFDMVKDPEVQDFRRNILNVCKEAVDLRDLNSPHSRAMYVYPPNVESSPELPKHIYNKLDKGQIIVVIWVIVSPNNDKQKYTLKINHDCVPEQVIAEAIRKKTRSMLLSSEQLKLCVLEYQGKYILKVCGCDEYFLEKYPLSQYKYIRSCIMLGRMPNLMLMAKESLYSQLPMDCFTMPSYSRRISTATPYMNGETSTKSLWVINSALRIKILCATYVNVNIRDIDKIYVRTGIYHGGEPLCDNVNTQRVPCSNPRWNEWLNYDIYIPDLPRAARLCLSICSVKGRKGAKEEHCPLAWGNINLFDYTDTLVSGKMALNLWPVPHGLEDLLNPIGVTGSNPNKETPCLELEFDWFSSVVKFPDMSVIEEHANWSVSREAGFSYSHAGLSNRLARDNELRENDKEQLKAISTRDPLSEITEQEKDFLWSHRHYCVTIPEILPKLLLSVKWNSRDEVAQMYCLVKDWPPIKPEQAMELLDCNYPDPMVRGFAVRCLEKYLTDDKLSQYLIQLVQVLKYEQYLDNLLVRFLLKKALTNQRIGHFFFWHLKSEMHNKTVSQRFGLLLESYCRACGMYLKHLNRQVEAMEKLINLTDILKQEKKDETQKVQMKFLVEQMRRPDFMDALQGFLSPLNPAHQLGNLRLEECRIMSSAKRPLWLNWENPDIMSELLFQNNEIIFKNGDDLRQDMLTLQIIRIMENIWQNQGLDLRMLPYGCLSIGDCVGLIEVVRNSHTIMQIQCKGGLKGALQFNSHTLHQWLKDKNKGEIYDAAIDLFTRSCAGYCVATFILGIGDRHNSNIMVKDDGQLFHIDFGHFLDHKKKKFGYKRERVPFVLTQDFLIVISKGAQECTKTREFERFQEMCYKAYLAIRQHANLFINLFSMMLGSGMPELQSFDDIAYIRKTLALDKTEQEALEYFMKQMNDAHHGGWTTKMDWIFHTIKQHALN
Excerpt: as §1

[4] = target: Target kinase isoforms (PI3K, mTOR, RAF, MEK) (Homo sapiens, UniProt P42338); assay: as above; type: biochemical; conditions: PI3K beta
Chain of Target kinase isoforms (PI3K, mTOR, RAF, MEK) (Homo sapiens, UniProt P42338) (P42338 whole entry, canonical isoform): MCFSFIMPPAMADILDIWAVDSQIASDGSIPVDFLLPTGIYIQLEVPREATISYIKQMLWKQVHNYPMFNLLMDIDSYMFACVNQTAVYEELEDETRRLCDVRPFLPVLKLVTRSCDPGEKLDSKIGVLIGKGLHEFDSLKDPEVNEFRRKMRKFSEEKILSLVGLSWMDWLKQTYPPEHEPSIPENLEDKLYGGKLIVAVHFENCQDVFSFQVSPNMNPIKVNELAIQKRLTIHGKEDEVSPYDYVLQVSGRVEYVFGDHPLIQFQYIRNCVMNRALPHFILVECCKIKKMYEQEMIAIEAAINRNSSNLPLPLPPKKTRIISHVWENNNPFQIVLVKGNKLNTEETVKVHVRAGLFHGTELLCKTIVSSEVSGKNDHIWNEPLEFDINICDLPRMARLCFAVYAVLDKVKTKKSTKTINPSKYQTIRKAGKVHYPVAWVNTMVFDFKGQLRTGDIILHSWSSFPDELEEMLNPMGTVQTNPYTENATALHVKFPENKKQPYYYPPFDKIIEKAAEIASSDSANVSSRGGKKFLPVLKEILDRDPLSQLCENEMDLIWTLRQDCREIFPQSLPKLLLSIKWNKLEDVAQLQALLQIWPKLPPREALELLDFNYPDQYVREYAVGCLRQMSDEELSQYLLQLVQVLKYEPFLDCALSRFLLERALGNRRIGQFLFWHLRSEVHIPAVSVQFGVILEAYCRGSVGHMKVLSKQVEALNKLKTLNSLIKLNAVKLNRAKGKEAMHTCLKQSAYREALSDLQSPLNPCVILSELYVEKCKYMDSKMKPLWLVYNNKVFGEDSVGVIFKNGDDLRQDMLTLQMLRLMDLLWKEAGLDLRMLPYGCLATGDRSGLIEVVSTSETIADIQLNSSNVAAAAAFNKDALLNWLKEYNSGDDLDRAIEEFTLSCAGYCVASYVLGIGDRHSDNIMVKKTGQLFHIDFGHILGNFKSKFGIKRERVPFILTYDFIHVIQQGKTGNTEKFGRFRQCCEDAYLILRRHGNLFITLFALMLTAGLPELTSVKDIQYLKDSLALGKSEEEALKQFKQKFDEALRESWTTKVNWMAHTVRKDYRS
Excerpt: as §1

[5] = target: Target kinase isoforms (PI3K, mTOR, RAF, MEK) (Homo sapiens, UniProt P48736); assay: as above; type: biochemical; conditions: PI3K gamma
Chain of Target kinase isoforms (PI3K, mTOR, RAF, MEK) (Homo sapiens, UniProt P48736) (P48736 whole entry, canonical isoform): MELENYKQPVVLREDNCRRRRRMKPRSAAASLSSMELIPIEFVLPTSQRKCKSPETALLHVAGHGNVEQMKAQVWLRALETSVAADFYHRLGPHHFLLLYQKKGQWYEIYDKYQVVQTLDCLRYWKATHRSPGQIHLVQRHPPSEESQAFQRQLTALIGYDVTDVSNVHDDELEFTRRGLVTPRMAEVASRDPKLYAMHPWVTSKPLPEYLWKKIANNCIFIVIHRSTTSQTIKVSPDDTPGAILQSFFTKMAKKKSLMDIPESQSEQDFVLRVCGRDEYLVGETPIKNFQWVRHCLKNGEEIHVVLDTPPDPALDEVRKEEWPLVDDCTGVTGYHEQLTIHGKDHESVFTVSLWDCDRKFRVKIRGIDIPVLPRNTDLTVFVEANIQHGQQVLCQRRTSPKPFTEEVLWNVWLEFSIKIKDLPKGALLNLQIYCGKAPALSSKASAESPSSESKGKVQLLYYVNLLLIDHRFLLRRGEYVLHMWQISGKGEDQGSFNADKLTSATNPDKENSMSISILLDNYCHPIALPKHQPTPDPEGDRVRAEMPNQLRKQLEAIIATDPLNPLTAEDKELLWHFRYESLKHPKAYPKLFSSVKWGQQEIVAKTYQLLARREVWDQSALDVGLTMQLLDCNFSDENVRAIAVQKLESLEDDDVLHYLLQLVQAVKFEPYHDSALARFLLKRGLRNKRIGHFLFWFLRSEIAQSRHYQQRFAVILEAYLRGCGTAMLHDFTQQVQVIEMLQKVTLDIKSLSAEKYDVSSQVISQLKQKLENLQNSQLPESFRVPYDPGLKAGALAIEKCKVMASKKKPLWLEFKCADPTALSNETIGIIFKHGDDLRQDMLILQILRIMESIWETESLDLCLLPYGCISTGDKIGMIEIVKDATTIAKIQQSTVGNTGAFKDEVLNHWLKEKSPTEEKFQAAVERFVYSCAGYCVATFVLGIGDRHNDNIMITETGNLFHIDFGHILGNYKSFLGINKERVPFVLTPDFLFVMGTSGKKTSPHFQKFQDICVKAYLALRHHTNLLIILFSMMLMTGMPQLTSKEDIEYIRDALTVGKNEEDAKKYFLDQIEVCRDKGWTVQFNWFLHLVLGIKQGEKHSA
Excerpt: as §1

[6] = concentration 0.0187 nM, 18.7 pM
[7] = concentration 0.495 nM, 0.000495 µM
[8] = concentration 4.57 nM, 0.00457 µM
[9] = concentration 1.52 nM, 0.00152 µM

mesenteric lymph node levels versus blood ([1]; 4 h after oral 400 mg kg^−1): significantly higher than in blood
SMILES: O=C(NOCCOCCOCCOCCONC(=O)c1ccc(F)c(F)c1Nc1ccc(I)cc1F)c1ccc(F)c(F)c1Nc1ccc(I)cc1F [LP5-37]

uptake in the mesenteric lymph nodes compared to LP5-37 ([1]; 4 h after oral 100 mg kg^−1): reduced uptake
SMILES: COCCOCCOCCOCCONC(=O)c1ccc(F)c(F)c1Nc1ccc(I)cc1F [LP5-38]

activity at 670 fM ([2]; concentration 0.00067 nM): 113%
Kinase Activity (%) PI3K delta ([2]; concentration 0.00067 nM, 670 fM): 102%
activity at 18.7 pM ([2]; concentration 0.0187 nM): 97%
Kinase Activity (%) PI3K delta [2, 6]: 108%
activity at 56.2 pM ([2]; concentration 0.0562 nM): 81%
Kinase Activity (%) PI3K delta [2, 7]: 16% and 14% and 11% and 8%
Kinase Activity (%) PI3K delta [2, 8]: 6%
activity at 0.0412 µM ([2]; concentration 41.2 nM): 4%
activity at 0.123 µM ([2]; concentration 123 nM): 4%
activity at […] ([2]; concentration 370 nM): 4%
activity at 1.11 µM ([2]; concentration 1110 nM): 4%
Kinase Activity (%) PI3K delta ([2]; concentration 1110 nM, 1.11 µM): 6%
activity at 3.33 µM ([2]; concentration 3330 nM): 5%
Kinase Activity (%) PI3K delta ([2]; concentration 3330 nM, 3.33 µM): 6% and 7%
Kinase Activity (%) PI3K delta ([2]; concentration 10000 nM, 10 µM): 7% and 0%
activity at 2.04 pM ([2]; concentration […]): 103%
activity at 6.09 pM ([2]; concentration […]): 104%
Kinase Activity (%) PI3K delta ([2]; concentration […], 2.04 pM): 105%
Kinase Activity (%) PI3K delta ([2]; concentration […], 6.09 pM): 106%
activity at 670 fM ([3]; concentration 0.000670 nM): 105%
Kinase Activity (%) PI3K alpha ([3]; concentration 0.00209 nM, 2.09 pM): 101%
activity at 18.8 pM ([3]; concentration 0.0188 nM): 91%
Kinase Activity (%) PI3K alpha ([3]; concentration 0.0188 nM, 18.8 pM): 89%
activity at 56.4 pM ([3]; concentration 0.0564 nM): 73%
Kinase Activity (%) PI3K alpha ([3]; concentration 0.0564 nM, 56.4 pM): 75%
activity at 0.000495 µM ([3]; concentration 0.495 nM): 15%
Kinase Activity (%) PI3K alpha [3, 7]: 17% and 18% and 16% and 20%
activity at 0.00152 µM ([3]; concentration 1.52 nM): 4%
Kinase Activity (%) PI3K alpha [3, 9]: 5% and 6%
Kinase Activity (%) PI3K alpha [3, 8]: 1%
activity at 0.0412 µM ([3]; concentration 41.2 nM): 0%
activity at 0.123 µM ([3]; concentration 123 nM): 0%
activity at […] ([3]; concentration 370 nM): 0%
activity at 1.11 µM ([3]; concentration 1110 nM): 0%
Kinase Activity (%) PI3K alpha ([3]; concentration 10000 nM, 10 µM): 1%
activity at 18.7 pM ([4]; concentration 0.0187 nM): 103%
Kinase Activity (%) PI3K beta [4, 6]: 108%
activity at 56.2 pM ([4]; concentration 0.0562 nM): 110%
Kinase Activity (%) PI3K beta ([4]; concentration 0.0562 nM, 56.2 pM): 106%
Kinase Activity (%) PI3K beta [4, 9]: 48% and 51% and 47% and 67% and 62%
activity at 0.0412 µM ([4]; concentration 41.2 nM): 9%
Kinase Activity (%) PI3K beta ([4]; concentration 41.2 nM, 0.0412 µM): 7% and 8% and 10%
activity at 0.123 µM ([4]; concentration 123 nM): 9%
Kinase Activity (%) PI3K beta ([4]; concentration 123 nM, 0.123 µM): 6% and 10% and 8% and 7%
activity at […] ([4]; concentration 370 nM): 12%
activity at 1.11 µM ([4]; concentration 1110 nM): 9%
Kinase Activity (%) PI3K beta ([4]; concentration 1110 nM, 1.11 µM): 8%
activity at 3.33 µM ([4]; concentration 3330 nM): 11%
Kinase Activity (%) PI3K beta ([4]; concentration 3330 nM, 3.33 µM): 10%
activity at 2.04 pM ([4]; concentration […]): 107%
activity at 0.00152 µM ([5]; concentration 1.52 nM): 19%
Kinase Activity (%) PI3K gamma [5, 9]: 24% and 22% and 20% and 21%
activity at 0.0412 µM ([5]; concentration 41.2 nM): 0%
activity at 0.123 µM ([5]; concentration 123 nM): 0%
Kinase Activity (%) PI3K gamma ([5]; concentration 370 nM, […]): 1%
activity at 1.11 µM ([5]; concentration 1110 nM): 0%
activity at 3.33 µM ([5]; concentration 3330 nM): 0%
Kinase Activity (%) PI3K gamma ([5]; concentration 10000 nM, 10 µM): 5%
Kinase Activity (%) PI3K gamma ([5]; concentration […], 6.09 pM): 103%
SMILES: COc1ncc(-c2ccc3nccc(-c4ccnnc4)c3c2)cc1NS(=O)(=O)c1ccc(F)cc1F [GSK2126458]
Kinase Activity (%) PI3K beta [4, 7]: 72% and 62% and 60% and 71% and 65% and 84%
